# From article PMC8671752, “Effects of ex vivo Extracorporeal Membrane Oxygenation Circuits on Sequestration of Antimicrobial Agents” (Frontiers in Medicine, 2021)
# Marks after values point to notes of the source that are not given here. Starred links: 1 amine or outer side, 2 acyl side, 3 side chain; linkers in the order of their positions; H or OH if unused. Positions of bridges follow the written chain, without caps; N, C: chain ends. Non-standard residues stand in square brackets, D forms with d. Residues, ends and D or L forms follow the SMILES beside them. *: point of attachment. hTyr(3S-OH,4S-OH,3'-OSO3H) = N[C@H](C(=O)O)[C@H](O)[C@@H](O)c1ccc(O)c(OS(=O)(=O)O)c1; Orn(4R-OH,5R-OH) = O=C([C@H](C[C@@H](O)[C@@H](O)N[*:3])N[*:1])[*:2]; Pro(3S-OH,4S-Me) = C[C@H]1CN[C@H](C(=O)O)[C@H]1O; X2 = CCCCCOc1ccc(-c2cc(-c3ccc(C(=O)*)cc3)no2)cc1; Gln(3R-OH) = NC(=O)C[C@@H](O)[C@H](N)C(=O)O; Hyp = O=C(O)[C@@H]1C[C@@H](O)CN1; X1 = CC[C@H](C)CCCCC(=O)*; Dab = NCC[C@H](N)C(=O)O
# How the values were obtained:
# [1] = cited from earlier work; for Lipophilicity (log P): ref DrugBank [12]
# [2] = Drug recovery in the Maquet ECMO circuit; conditions: Bioline-coated circuit, whole human blood, 37°C, HPLC-MS/MS, % of 2 min concentration, mean (SD), n=2
# Method: (§1) Four healthy volunteers were recruited. After obtaining informed consent, 402 ml of blood was collected through the cubitus vein using disposable blood bags (Fresenius Kabi), of which 2 ml was used for a routine blood examination. Sorin (LivaNova, London, United Kingdom) and Maquet (Getinge AB, Hirrlingen, Germany) ECMO circuits were used to establish self-circulation and were primed with fresh whole human blood. After the circulation stabilized, the drugs were added to the circuit. Blood samples were collected at different time points, and the drug concentration was measured to observe the recovery rate of different drugs in the ECMO cycle.
# (§2) Each circuit consisted of a membrane oxygenator, centrifugal pump, cannula, heat exchanger, and PVC tubing. The materials of each ECMO component are shown in Supplementary Material 1. A reservoir bag containing 30 mL of blood was used to construct a bypass to maintain the pressure of the circuit (Figure 1). Eight hundred milliliters of fresh whole human blood (<1 h old) was used to prime the circuit. Heparin (5,000 U) was added to the circuits to prevent clotting.
# (§3) The circuit flow rate was controlled at 4–5 L/min. Circuit temperature was maintained at 37°C.
# (§4) These bolus doses were selected to produce concentrations similar to clinical concentrations. The order of administration was determined according to the half-life from long to short. According to the drug instructions, none of the drugs interact with each other ([12]). Two milliliters of physiological saline solution (0.9%) was used to flush the tube after injection of all drugs to avoid drug loss at the entrance of administration.
# (§5) In this study, two experiments were carried out and 26 blood samples were analyzed. The first experiment was conducted with the Maquet ECMO circuit. […] The blood samples collected at each time point were measured twice due to the uncertainty of the initial experiment.
# [3] = Drug recovery in the Sorin ECMO circuit; conditions: phosphorylcholine-coated circuit, whole human blood, 37°C, HPLC-MS/MS, % of 2 min concentration, single measurement
# Method: as §1, §2, §3, §4, §5
# [4] = Control group: spontaneous drug degradation in whole blood at 37°C; conditions: HPLC-MS/MS; for Mean drug recovery, Control-3 h (Maquet experiment) / Mean drug recovery, Control-6 h (Maquet experiment) / Mean drug recovery, Control-12 h (Maquet experiment) / Mean drug recovery, Control-24 h (Maquet experiment): control of Maquet experiment, n=2; for Mean drug recovery, Control-3 h (Maquet experiment) / Mean drug recovery, Control-6 h (Maquet experiment) / Mean drug recovery, Control-12 h (Maquet experiment) / Mean drug recovery, Control-24 h (Maquet experiment) / Drug recovery, Control-6 h (Sorin experiment) / Drug recovery, Control-24 h (Sorin experiment) / Drug recovery, Control-3 h (Sorin experiment): whole human blood, no circuit, % of 2 min concentration; for Mean drug recovery, Control-3 h (Maquet experiment) / Drug recovery, Control-3 h (Sorin experiment): water bath 37°C 3 h; for Mean drug recovery, Control-3 h (Maquet experiment) / Mean drug recovery, Control-6 h (Maquet experiment) / Mean drug recovery, Control-12 h (Maquet experiment) / Mean drug recovery, Control-24 h (Maquet experiment) / Drug recovery (%) from control group at 24 h: mean (SD), SD; for Mean drug recovery, Control-6 h (Maquet experiment) / Drug recovery, Control-6 h (Sorin experiment): water bath 37°C 6 h; for Mean drug recovery, Control-12 h (Maquet experiment): water bath 37°C 12 h; for Mean drug recovery, Control-24 h (Maquet experiment) / Drug recovery, Control-24 h (Sorin experiment) / Drug recovery (%) from control group at 24 h: water bath 37°C 24 h; for Drug recovery, Control-6 h (Sorin experiment) / Drug recovery, Control-24 h (Sorin experiment) / Drug recovery, Control-3 h (Sorin experiment): control of Sorin experiment, single measurement; for Drug recovery (%) from control group at 24 h: controls of both experiments, whole human blood taken 2 min after injection, not passed through circuit, relative to 2 min baseline
# [5] = Drug recovery in blood-primed ex vivo ECMO circuits (average of Maquet and Sorin); conditions: for Drug recovery (%) from circuits at 24 h: average over Maquet and Sorin circuits, closed loop primed with fresh whole human blood, 37°C, pH 7.25–7.55, 4–5 L/min, plasma HPLC-MS/MS, relative to 2 min baseline, mean (SD), SD
# Method: as §1, §2, §3, §4
# [6] = ref DrugBank [12]; cited from earlier work
# [7] = cited from earlier work
# [8] = cited from earlier work; remark: listed apart in the source
structure (smiles),measurement,setting,value
"C[C@@H](c1ncncc1F)[C@](O)(Cn1cncn1)c1ccc(F)cc1F [Voriconazole, voriconazole]",Lipophilicity (log P),[1],2.561
"CCN1CCN(C(=O)N[C@@H](C(=O)N[C@@H]2C(=O)N3C(C(=O)O)=C(CSc4nnnn4C)CS[C@H]23)c2ccc(O)cc2)C(=O)C1=O [Cefoperazone, cefoperazone]","Mean drug recovery, Maquet circuit, 5 min",[2],102% (3%)
same,"Mean drug recovery, Maquet circuit, 15 min",[2],100% (4%)
same,"Mean drug recovery, Maquet circuit, 30 min",[2],100% (2%)
same,"Mean drug recovery, Maquet circuit, 1 h",[2],102% (1%)
same,"Mean drug recovery, Maquet circuit, 3 h",[2],98% (2%)
same,"Mean drug recovery, Maquet circuit, 6 h",[2],99% (1%)
same,"Mean drug recovery, Maquet circuit, 12 h",[2],91% (5%)
same,"Mean drug recovery, Maquet circuit, 24 h",[2],81% (1%)
same,"Drug recovery, Sorin circuit, 5 min",[3],100%
same,"Drug recovery, Sorin circuit, 15 min",[3],100%
same,"Drug recovery, Sorin circuit, 30 min",[3],99%
same,"Drug recovery, Sorin circuit, 1 h",[3]; 1 h,102%
same,"Drug recovery, Sorin circuit, 6 h",[3],98%
same,"Drug recovery, Sorin circuit, 12 h",[3],92%
same,"Drug recovery, Sorin circuit, 24 h",[3],75%
same,Lipophilicity (log P),[1],−0.74
same,"Mean drug recovery, Control-3 h (Maquet experiment)",[4],100% (0%)
same,"Mean drug recovery, Control-6 h (Maquet experiment)",[4],99% (0%)
same,"Mean drug recovery, Control-12 h (Maquet experiment)",[4],100% (2%)
same,"Mean drug recovery, Control-24 h (Maquet experiment)",[4],98% (2%)
same,"Drug recovery, Control-6 h (Sorin experiment)",[4],98%
same,"Drug recovery, Control-24 h (Sorin experiment)",[4],98%
same,Drug recovery (%) from control group at 24 h,[4],98.30 (1.17) %
"C[C@@H](O)[C@H]1C(=O)N2C(C(=O)O)=C(S[C@@H]3CN[C@H](C(=O)N(C)C)C3)[C@H](C)[C@H]12 [Meropenem, meropenem]",Drug recovery (%) from circuits at 24 h,[5],45.37 (3.58) %
same,Average loss at 24 h in the circuits,"[5]; loss, average of Maquet and Sorin circuits",55%
same,"Mean drug recovery, Maquet circuit, 5 min",[2],100% (0%)
same,"Mean drug recovery, Maquet circuit, 15 min",[2],100% (1%)
same,"Mean drug recovery, Maquet circuit, 30 min",[2],101% (4%)
same,"Mean drug recovery, Maquet circuit, 1 h",[2],98% (0%)
same,"Mean drug recovery, Maquet circuit, 3 h",[2],93% (2%)
same,"Mean drug recovery, Maquet circuit, 6 h",[2],83% (7%)
same,"Mean drug recovery, Maquet circuit, 12 h",[2],64% (2%)
same,"Mean drug recovery, Maquet circuit, 24 h",[2],45% (5%)
same,"Drug recovery, Sorin circuit, 3 h",[3],100%
same,"Drug recovery, Sorin circuit, 6 h",[3],92%
same,"Drug recovery, Sorin circuit, 12 h",[3],74%
same,"Drug recovery, Sorin circuit, 24 h",[3],47%
same,Lipophilicity (log P),[1],−0.6
same,"Mean drug recovery, Control-3 h (Maquet experiment)",[4],97% (4%)
same,"Mean drug recovery, Control-6 h (Maquet experiment)",[4],91% (9%)
same,"Mean drug recovery, Control-12 h (Maquet experiment)",[4],77% (8%)
same,"Mean drug recovery, Control-24 h (Maquet experiment)",[4],65% (10%)
same,"Drug recovery, Control-3 h (Sorin experiment)",[4],97%
same,"Drug recovery, Control-6 h (Sorin experiment)",[4],102%
same,"Drug recovery, Control-24 h (Sorin experiment)",[4],95%
same,Drug recovery (%) from control group at 24 h,[4],74.84 (19.10) %
"CC[C@H](C)C[C@H](C)CCCCCCCCC(=O)N[C@H]1C[C@@H](O)[C@@H](NCCN)NC(=O)[C@@H]2[C@@H](O)CCN2C(=O)[C@H]([C@H](O)CCN)NC(=O)[C@H]([C@H](O)[C@@H](O)c2ccc(O)cc2)NC(=O)[C@@H]2C[C@@H](O)CN2C(=O)[C@H]([C@@H](C)O)NC1=O [Caspofungin, caspofungin]",Drug recovery (%) from circuits at 24 h,[5],83.26 (6.17) %
same,Lipophilicity (log P),[1],−2.798
same,Protein binding rate (%),[6],97%
same,Average drug recovery at 24 h in the ECMO circuit,[7]; ex vivo experiment by Shekar et al.,56%
same,Drug recovery (%) from control group at 24 h,[4],85.24 (7.93) %
CC(C)c1cccc(C(C)C)c1O [propofol],octanol/water partition (log P),[1],4.0
"CN(C)c1cc(NC(=O)CNC(C)(C)C)c(O)c2c1C[C@H]1C[C@H]3[C@H](N(C)C)C(O)=C(C(N)=O)C(=O)[C@@]3(O)C(O)=C1C2=O [Tigecycline, tigecycline]",Drug recovery (%) from circuits at 24 h,[5],100.03 (13.68) %
same,Lipophilicity (log P),[1],0.8
same,Average Vd in critically ill patients,"[8]; critically ill patients, no reference given",398 L
same,Drug recovery (%) from control group at 24 h,[4],144.54 (2.31) %
"CC[C@H](C)CCCCC(=O)N[C@@H](CCN)C(=O)N[C@H](C(=O)N[C@@H](CCN)C(=O)N[C@H]1CCNC(=O)[C@H]([C@@H](C)O)NC(=O)[C@H](CCN)NC(=O)[C@H](CCN)NC(=O)[C@H](CC(C)C)NC(=O)[C@@H](Cc2ccccc2)NC(=O)[C@H](CCN)NC1=O)[C@@H](C)O [Polymyxin B, polymyxin B] (X1-[Dab]T[Dab][Dab][Dab][dF]L[Dab][Dab]T; lactam 4-C)","Drug recovery, Sorin circuit, 5 min",[3],118%
same,"Drug recovery, Sorin circuit, 15 min",[3],86%
same,"Drug recovery, Sorin circuit, 30 min",[3],84%
same,"Drug recovery, Sorin circuit, 3 h",[3],117%
same,"Drug recovery, Sorin circuit, 6 h",[3],74%
same,"Drug recovery, Sorin circuit, 12 h",[3],74%
same,"Drug recovery, Sorin circuit, 24 h",[3],61.66 (-)^* %
same,Lipophilicity (log P),[1],−4.861
same,Protein binding rate (%),[6],79–92%
same,"Drug recovery, Control-3 h (Sorin experiment)",[4],91%
same,"Drug recovery, Control-6 h (Sorin experiment)",[4],93%
same,"Drug recovery, Control-24 h (Sorin experiment)",[4],60.10 (-)^* %
"CCCCCOc1ccc(-c2cc(-c3ccc(C(=O)N[C@H]4C[C@@H](O)[C@@H](O)NC(=O)[C@@H]5[C@@H](O)[C@@H](C)CN5C(=O)[C@H]([C@H](O)CC(N)=O)NC(=O)[C@H]([C@H](O)[C@@H](O)c5ccc(O)c(OS(=O)(=O)O)c5)NC(=O)[C@@H]5C[C@@H](O)CN5C(=O)[C@H]([C@@H](C)O)NC4=O)cc3)no2)cc1 [Micafungin, micafungin] (X2-[Orn(4R-OH,5R-OH)]T[Hyp][hTyr(3S-OH,4S-OH,3'-OSO3H)][Gln(3R-OH)][Pro(3S-OH,4S-Me)]; lactam 1-C)","Drug recovery, Sorin circuit, 24 h",[3],66.85 (-)^* %
same,Lipophilicity (log P),[1],−1.5
same,Protein binding rate (%),[6],> 99%
same,Average drug recovery in the control group at 24 h,"[7]; control group, ex vivo study by Watt et al.",57%
same,Average drug recovery in the ECMO loop at 24 h,[7]; ex vivo study by Watt et al.,26–43%
same,"Vd in infants on ECMO, higher than in infants not on ECMO",[8]; infants on ECMO versus infants not on ECMO,20–90%
same,"Drug recovery, Control-24 h (Sorin experiment)",[4],98.82 (-)^* %
